From ChEMBL document CHEMBL4049396, “Enzymatic and solid-phase synthesis of new donepezil-based L- and d-glutamic acid derivatives and their pharmacological evaluation in models related to Alzheimer's disease and cerebral ischemia” (Eur J Med Chem, 2017)
Calls of active or inactive are those of the source. No cut-off for these calls is given here.

What was measured:
SH-SY5Y [1] = assay: Neuroprotective activity against oxygen glucose deprivation/re-oxygenation-induced mitochondrial oxidative stress in human SH-SY5Y cells assessed as cell survival at 0.3 uM pretreated for 24 hrs followed by 4 hrs incubation under oxygen glucose deprivation medium and subsequent exposure to normoxic condition by MTT assay relative to control; type: functional; settings: read-out: Survival
SH-SY5Y [2] = assay: Cytotoxicity against human SH-SY5Y cells at 0.3 uM after 24 hrs by MTT assay; type: cell-based
Acetylcholinesterase = Acetylcholinesterase (Homo sapiens, UniProt P22303); assay: Inhibition of recombinant human AChE expressed in HEK293 cells using acetylthiocholine iodide as substrate pretreated for 5 mins followed by substrate addition measured for 5 mins by UV-Vis spectrophotometric method
SH-SY5Y [3] = assay: Neuroprotective activity against rotenone/oligomycin A-induced mitochondrial oxidative stress in human SH-SY5Y cells assessed as cell survival at 0.3 uM pretreated for 24 hrs followed by rotenone/oligomycin A challenge measured after 24 hrs by MTT assay relative to control; type: functional; settings: read-out: Survival
physchem = settings: PAMPA, pH 7.4
Description: Permeability of the compound at pH 7.4 at 1 mg/ml after 4 hrs by PAMPA-BBB assay

Cholinesterase = Cholinesterase (Homo sapiens, UniProt P06276); assay: Inhibition of human serum BuChE using butyrylthiocholine iodide as substrate pretreated for 5 mins followed by substrate addition measured for 5 mins by UV-Vis spectrophotometric method
[4] = Antioxidant activity assessed as oxygen radical absorbance capacity at 10 uM relative to trolox; type: functional
[5] = Antioxidant activity assessed as oxygen radical absorbance capacity at 10 uM; type: functional
Homo sapiens = organism: Homo sapiens; assay: Ratio of IC50 for recombinant human AChE expressed in HEK293 cells to IC50 for human serum BuChE; type: cell-based
Bos taurus [6] = organism: Bos taurus; assay: Inhibition of L-type voltage dependent calcium channel in bovine Chromaffin cells assessed as reduction in K+-induced calcium current amplitude at 10 uM preincubated for 5 mins followed by potassium challenge measured by Fluo-4AM dye based fluorescence assay relative to control; type: cell-based
[7] = target: T1, Voltage-gated L-type calcium channel (Homo sapiens, UniProt Q13936+Q13698+Q01668+O60840); assay: (§1) Inhibition of L-type voltage dependent calcium channel in human SH-SY5Y cells assessed as reduction in K+-induced cytosolic free calcium transient current preincubated for 15 mins followed by potassium challenge measured for 14 secs by Fluo-4AM dye based fluorescence assay; type: cell-based
Bos taurus [8] = organism: Bos taurus; assay: Inhibition of L-type voltage dependent calcium channel in bovine Chromaffin cells assessed as reduction in K+-induced calcium transient current area at 10 uM preincubated for 5 mins followed by potassium challenge measured by Fluo-4AM dye based fluorescence assay relative to control; type: cell-based
Hippocampus [9] = assay: Neuroprotective activity in oxygen glucose deprivation/re-oxygenation-induced Sprague-Dawley rat hippocampal slice cerebral ischemia model assessed as cell viability at 3 uM incubated for 2 hrs under normoxic condition by MTT assay (reference value: 40%); type: functional
[10] = Inhibition of L-type voltage dependent calcium channel in bovine Chromaffin cells assessed as reduction in K+-induced cytosolic free calcium transient current preincubated for 5 mins followed by potassium challenge measured by Fluo-4AM dye based fluorescence assay; type: cell-based; settings: Bos taurus
Hippocampus [11] = assay: Neuroprotective activity in oxygen glucose deprivation/re-oxygenation-induced Sprague-Dawley rat hippocampal slice cerebral ischemia model assessed as increase in cell viability incubated for 2 hrs under normoxic condition by MTT assay; type: functional, tissue-based
[12] = target: T1, Voltage-gated L-type calcium channel; assay: as §1, with “current at 100 uM” for “current”, “assay relative to control” for “assay”; type: cell-based; settings: 14 s
Hippocampus [13] = assay: Neuroprotective activity in oxygen glucose deprivation/re-oxygenation-induced Sprague-Dawley rat hippocampal slice cerebral ischemia model assessed as cell viability at 1 uM incubated for 2 hrs under normoxic condition by MTT assay (reference value: 40%); type: functional

Cholinesterase, sequence (P06276 whole entry): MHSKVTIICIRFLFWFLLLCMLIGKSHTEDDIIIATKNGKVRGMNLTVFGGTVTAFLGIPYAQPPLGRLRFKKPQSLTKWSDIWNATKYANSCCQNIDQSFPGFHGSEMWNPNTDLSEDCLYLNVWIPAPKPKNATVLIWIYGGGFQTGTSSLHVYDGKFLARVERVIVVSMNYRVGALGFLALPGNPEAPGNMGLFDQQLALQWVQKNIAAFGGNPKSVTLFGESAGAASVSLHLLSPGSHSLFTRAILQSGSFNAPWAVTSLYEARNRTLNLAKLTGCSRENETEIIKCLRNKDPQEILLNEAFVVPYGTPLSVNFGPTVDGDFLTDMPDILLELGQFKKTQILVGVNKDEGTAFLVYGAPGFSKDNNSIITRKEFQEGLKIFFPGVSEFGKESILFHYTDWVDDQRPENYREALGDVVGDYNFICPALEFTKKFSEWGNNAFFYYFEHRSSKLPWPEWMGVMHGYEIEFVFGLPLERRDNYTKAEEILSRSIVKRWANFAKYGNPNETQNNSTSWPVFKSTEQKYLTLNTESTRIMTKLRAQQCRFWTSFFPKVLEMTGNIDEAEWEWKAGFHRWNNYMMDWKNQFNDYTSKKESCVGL
Acetylcholinesterase, sequence (P22303 whole entry): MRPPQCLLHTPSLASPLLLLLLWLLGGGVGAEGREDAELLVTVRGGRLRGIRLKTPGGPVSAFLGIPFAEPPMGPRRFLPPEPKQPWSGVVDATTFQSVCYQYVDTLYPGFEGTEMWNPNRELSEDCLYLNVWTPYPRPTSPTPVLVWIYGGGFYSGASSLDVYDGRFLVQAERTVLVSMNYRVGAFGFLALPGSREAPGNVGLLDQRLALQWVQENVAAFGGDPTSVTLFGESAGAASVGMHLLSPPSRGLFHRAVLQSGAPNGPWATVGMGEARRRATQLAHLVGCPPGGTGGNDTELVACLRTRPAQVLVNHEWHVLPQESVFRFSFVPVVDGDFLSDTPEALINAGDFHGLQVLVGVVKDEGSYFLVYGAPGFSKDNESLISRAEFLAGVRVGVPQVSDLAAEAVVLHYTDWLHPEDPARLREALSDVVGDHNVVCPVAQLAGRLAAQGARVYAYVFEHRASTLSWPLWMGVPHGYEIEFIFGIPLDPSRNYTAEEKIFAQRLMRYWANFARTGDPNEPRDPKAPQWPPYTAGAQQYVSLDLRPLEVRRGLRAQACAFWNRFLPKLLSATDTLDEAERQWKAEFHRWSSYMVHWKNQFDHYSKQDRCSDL

## O=C(CC[C@H](NC(=O)c1c[nH]c2ccccc12)C(=O)O)NCCC1CCN(Cc2ccccc2)CC1
SH-SY5Y [1]
  viability at 0.3 µM: 48.4%
SH-SY5Y [2]
  Activity: Non-Toxic
Acetylcholinesterase
  IC50: 6.4 µM
SH-SY5Y [3]
  viability at 0.3 µM: 34.6%
physchem
  Papp at 4 h, 1 mg/ml: 1.8 ×10⁻⁶ cm/s
Cholinesterase
  IC50: 71 µM
[4]
  Activity: 70 to 73%

## CCOC(=O)CC[C@@H](NC(=O)OCc1ccccc1)C(=O)OCC
SH-SY5Y [1]
  viability at 0.3 µM: 47.1%
[5]
  Activity: inactive
SH-SY5Y [2]
  Activity: Non-Toxic
Acetylcholinesterase
  IC50: > 10 µM
SH-SY5Y [3]
  viability at 0.3 µM: 34.7%
Cholinesterase
  IC50: > 10 µM

## CCCCCCOC(=O)[C@@H](CCC(=O)NCCC1CCN(Cc2ccccc2)CC1)NC(=O)c1ccccc1
SH-SY5Y [1]
  viability at 0.3 µM: 32.2%
[5]
  Activity: inactive
SH-SY5Y [2]
  Activity: Non-Toxic
Acetylcholinesterase
  IC50: 0.89 µM
SH-SY5Y [3]
  viability at 0.3 µM: 13%
physchem
  Papp at 4 h, 1 mg/ml: 13.9 ×10⁻⁶ cm/s
Cholinesterase
  IC50: 0.36 µM

## CCOC(=O)CC[C@@H](NC(=O)OCc1ccccc1)C(=O)NCCC1CCN(Cc2ccccc2)CC1
SH-SY5Y [1]
  viability at 0.3 µM: 47%
[5]
  Activity: inactive
SH-SY5Y [2]
  Activity: Non-Toxic
Acetylcholinesterase
  IC50: 3 µM
SH-SY5Y [3]
  viability at 0.3 µM: 31.6%
physchem
  Papp at 4 h, 1 mg/ml: 16.7 ×10⁻⁶ cm/s
Cholinesterase
  IC50: 0.17 µM
Homo sapiens
  Ratio IC50: 10

## O=C(CC[C@@H](NC(=O)c1ccccc1)C(=O)O)NCCC1CCN(Cc2ccccc2)CC1
SH-SY5Y [1]
  viability at 0.3 µM: 38.5%
[5]
  Activity: inactive
SH-SY5Y [2]
  Activity: Non-Toxic
Acetylcholinesterase
  IC50: 20 µM
SH-SY5Y [3]
  viability at 0.3 µM: 22.6%
physchem
  Papp at 4 h, 1 mg/ml: 4.6 ×10⁻⁶ cm/s
Cholinesterase
  IC50: 82 µM

## CCCCCCOC(=O)[C@H](CCC(=O)NCCC1CCN(Cc2ccccc2)CC1)NC(=O)c1ccccc1
SH-SY5Y [1]
  viability at 0.3 µM: 53.4%
[5]
  Activity: inactive
Bos taurus [6]
  inhibition: 40%
SH-SY5Y [2]
  Activity: Non-Toxic
[7]
  IC50: 14.1 µM
Bos taurus [8]
  inhibition: 80%
Hippocampus [9]
  Activity: 55%
[10]
  IC50: 5.31 µM
SH-SY5Y [3]
  viability at 0.3 µM: 44.1%

## CCOC(=O)[C@H](CCC(=O)NCCC1CCN(Cc2ccccc2)CC1)NC(=O)c1ccccc1
SH-SY5Y [1]
  viability at 0.3 µM: 50.9%
[5]
  Activity: inactive
SH-SY5Y [2]
  Activity: Non-Toxic
Acetylcholinesterase
  IC50: 0.85 µM
SH-SY5Y [3]
  viability at 0.3 µM: 38.6%
physchem
  Papp at 4 h, 1 mg/ml: 5.2 ×10⁻⁶ cm/s
Cholinesterase
  IC50: 1.3 µM

## CCOC(=O)[C@H](CCC(=O)NCCC1CCN(Cc2ccccc2)CC1)NC(=O)c1c[nH]c2ccccc12
SH-SY5Y [1]
  viability at 0.3 µM: 42.4%
SH-SY5Y [2]
  Activity: Non-Toxic
Acetylcholinesterase
  IC50: 1.9 µM
SH-SY5Y [3]
  viability at 0.3 µM: 39.5%
physchem
  Papp at 4 h, 1 mg/ml: 4.5 ×10⁻⁶ cm/s
Cholinesterase
  IC50: 0.3 µM
[4]
  Activity: 70 to 73%

## CCOC(=O)CC[C@H](NC(=O)OCc1ccccc1)C(=O)NCCC1CCN(Cc2ccccc2)CC1
Hippocampus [11]
  Activity: Dose-dependent effect
SH-SY5Y [1]
  viability at 0.3 µM: 42.7%
[5]
  Activity: inactive
SH-SY5Y [2]
  Activity: Non-Toxic
[7]
  IC50: 90.1 µM
Acetylcholinesterase
  IC50: 4.99 µM
Hippocampus [9]
  Activity: 69%
SH-SY5Y [3]
  viability at 0.3 µM: 35.2%
physchem
  Papp at 4 h, 1 mg/ml: 21 ×10⁻⁶ cm/s
Cholinesterase
  IC50: 0.4 µM
[12]
  %max: 63%
Hippocampus [13]
  Activity: 48%
Homo sapiens
  Ratio IC50: 10

## O=C(CC[C@H](NC(=O)c1ccccc1)C(=O)O)NCCC1CCN(Cc2ccccc2)CC1
SH-SY5Y [1]
  viability at 0.3 µM: 50.6%
[5]
  Activity: inactive
SH-SY5Y [2]
  Activity: Non-Toxic
Acetylcholinesterase
  IC50: 0.76 µM
SH-SY5Y [3]
  viability at 0.3 µM: 46.5%
physchem
  Papp at 4 h, 1 mg/ml: 3.5 ×10⁻⁶ cm/s
Cholinesterase
  IC50: > 10 µM

## CCOC(=O)[C@@H](CCC(=O)NCCC1CCN(Cc2ccccc2)CC1)NC(=O)c1ccccc1
SH-SY5Y [1]
  viability at 0.3 µM: 39.8%
[5]
  Activity: inactive
SH-SY5Y [2]
  Activity: Non-Toxic
Acetylcholinesterase
  IC50: 0.5 µM
SH-SY5Y [3]
  viability at 0.3 µM: 15.1%
physchem
  Papp at 4 h, 1 mg/ml: 6.6 ×10⁻⁶ cm/s
Cholinesterase
  IC50: 0.39 µM

## CCCCCCOC(=O)[C@H](CCC(=O)NCCC1CCN(Cc2ccccc2)CC1)NC(=O)c1c[nH]c2ccccc12
SH-SY5Y [1]
  viability at 0.3 µM: 31.8%
SH-SY5Y [2]
  Activity: Non-Toxic
Acetylcholinesterase
  IC50: 3.04 µM
SH-SY5Y [3]
  viability at 0.3 µM: 22.1%
physchem
  Papp at 4 h, 1 mg/ml: 9.6 ×10⁻⁶ cm/s
Cholinesterase
  IC50: 1.85 µM
[4]
  Activity: 70 to 73%

## CCOC(=O)[C@H](CCC(=O)NCCC1CCN(Cc2ccccc2)CC1)NC(=O)c1ccc2cc(OC)ccc2c1
SH-SY5Y [1]
  viability at 0.3 µM: 37.7%
[5]
  Activity: inactive
SH-SY5Y [2]
  Activity: Non-Toxic
Acetylcholinesterase
  IC50: 0.89 µM
SH-SY5Y [3]
  viability at 0.3 µM: 25.3%
physchem
  Papp at 4 h, 1 mg/ml: 8.3 ×10⁻⁶ cm/s
Cholinesterase
  IC50: 3.8 µM

## COc1ccc2cc(C(=O)N[C@@H](CCC(=O)NCCC3CCN(Cc4ccccc4)CC3)C(=O)O)ccc2c1
SH-SY5Y [1]
  viability at 0.3 µM: 45%
[5]
  Activity: inactive
SH-SY5Y [2]
  Activity: Non-Toxic
Acetylcholinesterase
  IC50: 15.2 µM
SH-SY5Y [3]
  viability at 0.3 µM: 35%
Cholinesterase
  IC50: 97 µM

## COc1ccc2[nH]cc(CCNC(C)=O)c2c1 [MELATONIN]
SH-SY5Y [1]
  viability at 0.3 µM: 31.4%
SH-SY5Y [3]
  viability at 0.3 µM: 33.4%

## CCOC(=O)CC[C@H](NC(=O)OCc1ccccc1)C(=O)OCC
SH-SY5Y [1]
  viability at 0.3 µM: 51.6%
[5]
  Activity: inactive
SH-SY5Y [2]
  Activity: Non-Toxic
Acetylcholinesterase
  IC50: > 10 µM
SH-SY5Y [3]
  viability at 0.3 µM: 37.3%
Cholinesterase
  IC50: > 10 µM
